Experimental data taken from article PMC7487564 (Cell Communication and Signaling : CCS, 2020).
pKd: −log10 of the molar value. Each block holds one compound with its values, some of them ahead of it.

How the values were obtained:
PVR = biological target: T1, PVR (Homo sapiens, UniProt P15151); test: Biolayer interferometry-based (BLI) binding assay; settings: for pKd: read-out: KD to PVR protein (BLI)
T1 construct: purchased ACRO Biosystem CD5-H82E3
T1 sequence (P15151 21-417): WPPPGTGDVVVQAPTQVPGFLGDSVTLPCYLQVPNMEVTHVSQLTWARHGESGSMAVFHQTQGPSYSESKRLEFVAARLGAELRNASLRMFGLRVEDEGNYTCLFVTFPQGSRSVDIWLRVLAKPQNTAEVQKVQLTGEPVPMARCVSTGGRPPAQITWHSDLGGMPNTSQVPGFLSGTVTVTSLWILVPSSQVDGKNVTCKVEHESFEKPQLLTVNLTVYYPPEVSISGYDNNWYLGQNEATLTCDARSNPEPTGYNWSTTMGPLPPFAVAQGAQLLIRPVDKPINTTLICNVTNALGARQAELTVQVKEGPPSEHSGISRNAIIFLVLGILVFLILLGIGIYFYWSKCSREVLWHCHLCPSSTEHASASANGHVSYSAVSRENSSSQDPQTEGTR
Experimental: BLI experiments were performed in PBS supplemented with 0.1% (w/v) BSA, 0.002% (v/v) Tween 20 and 1% DMSO, with an Octet RED96 instrument (FortéBio), operating at 25 °C. The biotinylated PVR carrying a C-terminal AVITAG (CD5-H82E3, ACRO Biosystem) was loaded to saturation onto Super Streptavidin (SSA) biosensors (Pall/FortéBio), and blocked with 200 μL biotin (5 μg/mL) for 60 s. Before the assay, the PVR-labeled SSA sensors were pre-soaked in binding buffer for 30 min. The twenty-two small molecule compounds were preliminary screened for binding to PVR at a single concentration of 100 μM. […] The dissociation was monitored by washing the ligand biosensors from the analyte solution to binding buffer for 60 s. Double reference-subtracted sensorgrams were analyzed using Data Analysis 9.0 (Pall/Forte Bio), and binding responses at the end of the association phase were reported.

human TIGIT/PVR = biological target: T2, human TIGIT/PVR (Homo sapiens, UniProt P15151); test: Cell based blocking assay, CHOK1-hTIGIT cells and human PVR-Fc; settings: CHOK1-hTIGIT cells, highest concentration
T2 construct: purchased ACRO Biosystem CD5-H82F6; host or cells: PVR-Fc was purchased; TIGIT was expressed on CHO-K1 cells by lentiviral infection (CHOK1-hTIGIT)
T2 sequence (P15151 28-343 limits assumed): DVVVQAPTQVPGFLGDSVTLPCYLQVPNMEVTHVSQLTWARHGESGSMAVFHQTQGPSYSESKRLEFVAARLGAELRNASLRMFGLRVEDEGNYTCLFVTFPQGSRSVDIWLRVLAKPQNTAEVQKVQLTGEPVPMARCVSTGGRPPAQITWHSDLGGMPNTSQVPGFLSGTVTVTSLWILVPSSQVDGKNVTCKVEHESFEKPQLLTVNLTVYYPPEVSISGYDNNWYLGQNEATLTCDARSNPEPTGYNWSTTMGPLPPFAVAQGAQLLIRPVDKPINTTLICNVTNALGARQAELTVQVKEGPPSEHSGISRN
Experimental: Cell based blocking assay was performed according to the previous report [30]. […] Then the mixture of PVR protein and compounds were incubated with CHOK1-TIGIT cells for another 30 min, followed by incubation with detection antibody anti-human IgG-PE (eBioscience) for 30 min. Cells were then washed with FACS buffer to remove the unbound fluorescent antibodies, acquired on a FACS Caliber™ (BD Biosciences) and analyzed by FlowJo. […] Cells incubated with corresponding Fc tagged protein and anti-human IgG-PE served as positive control, while cells only incubated with anti-human Fc-PE served as negative control. The mean fluorescent intensity (MFI) was recorded for calculating the blocking efficiency as the formula: Blocking%=MFIof positive control−MFIof tested compounds/MFIof positive control×100%.

MC38 tumor = test: Anti-tumor experiment and ex vivo assays, MC38 tumor-bearing mice; type: in vivo, C57BL/6 mice
Experimental: All mice experimental procedures were approved by the Ethics Committee of Zhengzhou University. Six-week-old female C57BL/6 mice (Vital River Laboratories, China) were maintained in a specific pathogen-free facility. Food and water were supplied ad libitum. Mice were acclimatized for about 1 week before the experiment. C57BL/6 mice were subcutaneously (s.c.) injected on the right flank with 1 × 10^6 syngeneic MC38 cells in 200 μL PBS. One week later, tumor-bearing mice were randomized into groups of negative control (normal saline with 3% DMSO and 0.5% Tween-80), 0.5, 1.5, 5 and 15 mg/kg of compounds or anti-TIGIT and isotype control groups. Mice were treated with 200 μL control or indicated compound through intraperitoneal (i.p.) injection every other day for 2 weeks, or with 200 μg anti-TIGIT (clone:1G9, Bioxcell) or isotype control mouse IgG (I5381, Sigma) through i.p. injection every 3 days for 2 weeks. Tumor sizes were measured using a digital caliper, and tumor volumes were calculated as the formula: V=1/2×alength×bwidth×cheight
For indicated immune cell depletion models, MC38 mice were injected with 250 μg anti-CD4 (clone: GK1.5), 200 μg anti-CD8 (clone: YTS169.4) or matched rat IgG control (I4131, Sigma), 200 μg anti-NK1.1 (clone: PK136) or matched mouse IgG control (I5381, Sigma) the day before the start of tumor inoculation, as well as weekly thereafter, resulting in a total of 3 injections per mouse. The depletion efficacy was confirmed by flow cytometry analysis with the blood sample of mice treated with indicated antibodies for 6 days. Mouse anti-CD45 FITC (clone: 30-F11, eBioscience), anti CD3 PerCP-eFluor710 (clone: 17A2, eBioscience), anti-CD8α APC (clone: 53–6.7, eBioscience), anti-CD4 APC (clone: GK1.5, eBioscience) and anti-NK1.1 PE (clone: PK136, eBioscience) were used.
Upon completion of treatment, MC38 tumor-bearing mice were sacrificed, and the tumors were dissected and digested by 100 U/mL collagenase IV (Invitrogen) and 100 U/mL Dnase I (Sigma) for 60 min, and then filtered through a 70 μm nylon cell strainer to single cell suspension. The cells were incubated with mouse anti-CD45 FITC (clone: 30-F11, eBioscience), mouse anti-CD3 PerCP-eFluor710 (clone: 17A2, eBioscience), and mouse anti-CD8α APC (clone: 53–6.7, eBioscience) to detect the frequency of infiltrating CD8^+ T cells. For functional assay, the tumor-infiltrating lymphocytes were isolated from tumor cell suspension by discontinuous Percoll density gradients (40 and 70%) (GE Healthcare). The isolated tumor-infiltrating lymphocytes, splenocytes and draining lymph node cells prepared by gentle mechanical disruption were stimulated with or without 20 ng/mL phorbol 12-myristate 13-acetate (PMA, Sigma) and 1 μMionomycin (Sigma) in the presence of protein transport inhibitor for 4 h. The following procedure of intracellular cytokine staining assay was performed as mentioned above, and the antibodies for the staining were mouse anti-CD3 PerCP-eFluor710, mouse anti-CD8α PE, and mouse anti-IFN-γ APC (clone: XMG1.2, eBioscience).

MC38 cells = test: Cell viability assay (MTT); type: cell-based, murine; settings: 12.5 to 100 μM, 3 days
Experimental: The cytotoxic effects of indicated compound on MC38 cells were determined by MTT assay. MC38 cells were seeded into 96-well plates at a density of 3000 cells/well and allowed to grow for adhesion. Cells were treated with medium with 1% DMSO as negative control or with a series dilution of indicated compound at a concentration range of 12.5 to 100 μM. Cell viability was ascertained using MTT reagent (Sigma) dissolved in 5 mg/mL PBS and incubated at 37 °C for 4 h in the following 3 days. Formazan crystals formed by viable cells were dissolved in 150 μL DMSO in each well. MTT reduction was quantified by measuring the absorbance at 490 nm.

[1] = Potential side effects in mice; type: in vivo; settings: different concentrations administrated for at least one week

- KD to PVR protein (BLI) (PVR; series of concentrations): could not fit a determined KD value
- BLI response, primary screening (PVR; single concentration of 100 μM): relatively good response
Structure (SMILES): O=C1/C(=C2\Nc3ccccc3C2=O)Nc2ccccc21 [SMC 2, Indigo]

- blocking efficacy of TIGIT/PVR (human TIGIT/PVR): 52%
- pKd (PVR; series of concentrations): 4.38
Structure (SMILES): COc1cc(/C=C/C(=O)CC(=O)/C=C/c2ccc(O)c(OC)c2)ccc1O [SMC 6, Curcumin]

Structure (SMILES): N[C@@H](Cc1cc(I)c(Oc2ccc(O)c(I)c2)c(I)c1)C(=O)O [SMC 14, Liothyronine]
- anti-tumor effects, MC38 tumor model (MC38 tumor; 0.5 mg/kg i.p. every other day): almost no anti-tumor effects
- anti-tumor effects with CD4+, CD8+ T and NK cells depleted (MC38 tumor; 5 mg/kg, MC38 model, depletion antibodies): almost disappeared
- anti-tumor effects, MC38 tumor model (MC38 tumor; 15 mg/kg compared with 5 mg/kg, i.p. every other day): equivalent
- MC38 tumor growth (MC38 tumor; high dose 5 mg/kg i.p. every other day): significantly inhibit
- MC38 tumor growth (MC38 tumor; low dose 1.5 mg/kg i.p. every other day): significantly inhibit
- cell viability of MC38 cells (MTT) (MC38 cells): did not impact the cell viability
- side effects on mental state, weight and diet of the mice [1]: no obvious effects

- blocking efficacy of TIGIT/PVR (human TIGIT/PVR): extremely low blocking efficacy
- pKd (PVR; series of concentrations): 5.23
Structure (SMILES): O=C(O[C@@H]1Cc2c(O)cc(O)cc2O[C@@H]1c1ccc(O)c(O)c1)c1cc(O)c(O)c(O)c1 [SMC 22, Epicatechin gallate]
